According to PubChem BioAssay AID1745844 (Carcinogenic Potency Database (CPDB), 2022):
The source made the active and inactive calls. No rule for the calls is given here.

Test system: rodent lifetime carcinogenesis bioassay, tumor incidence TD50
Test: chronic cancer bioassays in animals – CPDB, compiled studies (AID 1745844)

## OCCN(CCO)c1nc(-c2cccs2)nc2ccccc12
rat, strain Sprague-Dawley, females, in feed, site: any site (literature study), lesion: several types, types named in the paper, dosed 46 weeks, study length 66 weeks
  TD50: 60.1 mg/kg/day

## [O-][Cl+]O
mouse, strain B6C3F1, females, in drinking water, site: liver, lesion: several types, types named in the paper, dosed 85 weeks, study length 85 weeks
  TD50: 3060 mg/kg/day
mouse, strain B6C3F1, males, in drinking water, site: any site (literature study), lesion: several types, types named in the paper, dosed 85 weeks, study length 85 weeks
  TD50: 169 mg/kg/day
mouse, strain B6C3F1, males, in drinking water, site: liver, lesion: hyperplastic nodule, dosed 85 weeks, study length 85 weeks
  TD50: 146 mg/kg/day
mouse, strain B6C3F1, males, in drinking water, site: liver, lesion: several types, types named in the paper, dosed 85 weeks, study length 85 weeks
  TD50: 110 mg/kg/day
mouse, strain B6C3F1, males, in drinking water, site: lung, lesion: adenoma, dosed 85 weeks, study length 85 weeks
  TD50: 346 mg/kg/day
mouse, strain B6C3F1, males, in drinking water, site: lung, lesion: several types, types named in the paper, dosed 85 weeks, study length 85 weeks
  TD50: 237 mg/kg/day
rat, strain Fischer 344, females, in drinking water, site: any site (literature study), lesion: several types, types named in the paper, dosed 85 weeks, study length 85 weeks
  carcinogen call: negative (inactive)
rat, strain Fischer 344, males, in drinking water, site: any site (literature study), lesion: several types, types named in the paper, dosed 85 weeks, study length 85 weeks
  carcinogen call: negative (inactive)

## O=NN1CCCC1c1cccnc1 (stereo unspecified)
hamster, strain Syrian Golden, females, in drinking water, site: respiratory system, lesion: papilloma, dosed 31 weeks, study length 96 weeks
  TD50: 11.5 mg/kg/day
hamster, strain Syrian Golden, males, in drinking water, site: liver, lesion: angiosarcoma, dosed 31 weeks, study length 96 weeks
  TD50: 34.4 mg/kg/day
hamster, strain Syrian Golden, males, in drinking water, site: respiratory system, lesion: papilloma, dosed 31 weeks, study length 96 weeks
  TD50: 10.1 mg/kg/day

## CCCCCCCN
rat, strain Wistar, males, in drinking water, site: any site (literature study), lesion: several types, types named in the paper, dosed 61 weeks, study length 61 weeks
  carcinogen call: negative (inactive)

## Cc1cn([C@H]2C[C@H](N=[N+]=[N-])[C@@H](CO)O2)c(=O)[nH]c1=O
mouse, strain B6C3F1, females, by gavage, site: any site (literature study), lesion: several types, types named in the paper, dosed 104 weeks, study length 104 weeks
  TD50: 221 mg/kg/day
mouse, strain B6C3F1, females, by gavage, site: liver, lesion: hepatocellular adenoma + hepatoblastoma + hepatocellular carcinoma, dosed 104 weeks, study length 104 weeks
  TD50: 139 mg/kg/day
mouse, strain B6C3F1, females, by gavage, site: lung, lesion: alveolar/bronchiolar adenoma + alveolar/bronchiolar carcinoma, dosed 104 weeks, study length 104 weeks
  TD50: 510 mg/kg/day
mouse, strain B6C3F1, females, by gavage, site: vagina, lesion: squamous-cell carcinoma + squamous-cell papilloma, dosed 104 weeks, study length 104 weeks
  TD50: 209 mg/kg/day
mouse, strain B6C3F1, females, by gavage, site: vagina, lesion: squamous-cell carcinoma, dosed 104 weeks, study length 104 weeks
  TD50: 246 mg/kg/day
mouse, strain B6C3F1, males, by gavage, site: Harderian gland, lesion: adenoma + carcinoma, dosed 104 weeks, study length 104 weeks
  TD50: 458 mg/kg/day
mouse, strain B6C3F1, males, by gavage, site: Harderian gland, lesion: adenoma, dosed 104 weeks, study length 104 weeks
  TD50: 425 mg/kg/day
mouse, strain B6C3F1, males, by gavage, site: kidney, lesion: tubule adenoma + tubule carcinoma, dosed 104 weeks, study length 104 weeks
  TD50: 929 mg/kg/day
mouse, strain B6C3F1, males, by gavage, site: kidney, lesion: tubule adenoma, dosed 104 weeks, study length 104 weeks
  TD50: 1250 mg/kg/day
mouse, strain Charles River CD1, females, by gavage, site: any site (literature study), lesion: several types, types named in the paper, dosed 95 weeks, study length 95 weeks
  TD50: 131 mg/kg/day
mouse, strain Charles River CD1, females, by gavage, site: vagina, lesion: several types, types named in the paper, dosed 95 weeks, study length 95 weeks
  TD50: 508 mg/kg/day
mouse, strain Charles River CD1, females, by gavage, site: vagina, lesion: squamous-cell carcinoma, dosed 95 weeks, study length 95 weeks
  TD50: 715 mg/kg/day
mouse, strain Charles River CD1, males, by gavage, site: any site (literature study), lesion: several types, types named in the paper, dosed 82 weeks, study length 82 weeks
  carcinogen call: negative (inactive)
rat, strain Charles River CD (Sprague-Dawley), females, by gavage, site: vagina, lesion: squamous-cell carcinoma, dosed 95 weeks, study length 95 weeks
  TD50: 11600 mg/kg/day
rat, strain Charles River CD (Sprague-Dawley), males, by gavage, site: any site (literature study), lesion: several types, types named in the paper, dosed 103 weeks, study length 103 weeks
  carcinogen call: negative (inactive)

## CC(=O)O[C@]1(C(C)=O)CC[C@H]2[C@@H]3C=C(Cl)C4=CC(=O)CC[C@]4(C)[C@H]3CC[C@@]21C (tested in a mixture with another compound)
mouse, strain (C3H x RIII)F1 (MTV+), males, in feed, site: mammary tissue, wider than the gland, lesion: one or several types, types not named, dosed 104 weeks, study length 104 weeks
  TD50: 1.76 mg/kg/day
mouse, strain C3H (MTV+), females, in feed, site: mammary tissue, wider than the gland, lesion: one or several types, types not named, dosed 104 weeks, study length 104 weeks
  TD50: 5.98 mg/kg/day
mouse, strain RIII (MTV+), females, in feed, site: mammary tissue, wider than the gland, lesion: one or several types, types not named, dosed 104 weeks, study length 104 weeks
  TD50: 2.12 mg/kg/day
